Source: the supplement of paper PMC10307832

How the values were obtained:
Assay in all cases: relative viability (nuclei count vs DMSO), 5 days (fraction); higher = more cells survive
NCI-H2126 = test system: NCI-H2126
How it was run: (§1)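 One day after seeding in 1536-well plates, lung cancer cell lines were dosed by pin tool. Dosing was either single-drug or a fixed anchor-drug dose plus five library-drug doses (not always all listed) in √10 steps. After 5 days, nuclei were stained in one fix-and-stain step and counted on 4× images, and relative viability is the nuclei count of treated wells over that of vehicle wells, given as the median of duplicate plates.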

NCI-H1975 = test system: NCI-H1975
How it was run: as §1

SW 1573 = test system: SW 1573
How it was run: as §1

NCI-H647 = test system: NCI-H647
How it was run: as §1

PC-14 = test system: PC-14
How it was run: as §1

NCI-H1944 = test system: NCI-H1944
How it was run: as §1

NCI-H441 = test system: NCI-H441
How it was run: as §1

NCI-H460 = test system: NCI-H460
How it was run: as §1

PC-3 [JPC-3] = test system: PC-3 [JPC-3]
How it was run: as §1

NCI-H2170 = test system: NCI-H2170
How it was run: as §1

EMC-BAC-2 = test system: EMC-BAC-2
How it was run: as §1

NCI-H1355 = test system: NCI-H1355
How it was run: as §1

NCI-H2009 = test system: NCI-H2009
How it was run: as §1

SK-LU-1 = test system: SK-LU-1
How it was run: as §1

NCI-H1793 = test system: NCI-H1793
How it was run: as §1

NCI-H520 = test system: NCI-H520
How it was run: as §1

NCI-H1755 = test system: NCI-H1755
How it was run: as §1

LCLC-97TM1 = test system: LCLC-97TM1
How it was run: as §1

NCI-H2347 = test system: NCI-H2347
How it was run: as §1

NCI-H1666 = test system: NCI-H1666
How it was run: as §1

NCI-H1993 = test system: NCI-H1993
How it was run: as §1

Structure (SMILES): O=c1[nH]c2ccccc2n1C1CCN(CCCC(c2ccc(F)cc2)c2ccc(F)cc2)CC1 [Pimozide] + Nc1nc2[nH]cc(CCc3ccc(C(=O)N[C@@H](CCC(=O)O)C(=O)O)cc3)c2c(=O)[nH]1 [Pemetrexed] (partner 0.2 µM)
- relative viability (NCI-H2126; first compound 0.08 µM): 0.65
- relative viability (NCI-H2126; first compound 0.253 µM): 0.659
- relative viability (NCI-H2126; first compound 0.8 µM): 0.637
- relative viability (NCI-H2126; first compound 2.53 µM): 0.659
- relative viability (NCI-H2126; first compound 8 µM): 0.652
- relative viability (NCI-H1975; first compound 0.08 µM): 0.309
- relative viability (NCI-H1975; first compound 0.253 µM): 0.261
- relative viability (NCI-H1975; first compound 0.8 µM): 0.305
- relative viability (NCI-H1975; first compound 2.53 µM): 0.28
- relative viability (NCI-H1975; first compound 8 µM): 0.283
- relative viability (SW 1573; first compound 0.08 µM): 0.852
- relative viability (SW 1573; first compound 0.253 µM): 0.849
- relative viability (SW 1573; first compound 0.8 µM): 0.831
- relative viability (SW 1573; first compound 2.53 µM): 0.665
- relative viability (SW 1573; first compound 8 µM): 0.558
- relative viability (NCI-H647; first compound 0.08 µM): 0.186
- relative viability (NCI-H647; first compound 0.253 µM): 0.188
- relative viability (NCI-H647; first compound 0.8 µM): 0.175
- relative viability (NCI-H647; first compound 2.53 µM): 0.2
- relative viability (NCI-H647; first compound 8 µM): 0.128
- relative viability (PC-14; first compound 0.253 µM): 0.14
- relative viability (PC-14; first compound 0.8 µM): 0.14
- relative viability (PC-14; first compound 2.53 µM): 0.0963
- relative viability (PC-14; first compound 8 µM): 0.063
- relative viability (NCI-H1944; first compound 0.08 µM): 0.68
- relative viability (NCI-H1944; first compound 2.53 µM): 0.466
- relative viability (NCI-H1944; first compound 8 µM): 0.512
- relative viability (NCI-H441; first compound 0.08 µM): 0.27
- relative viability (NCI-H441; first compound 0.253 µM): 0.314
- relative viability (NCI-H441; first compound 0.8 µM): 0.276
- relative viability (NCI-H441; first compound 2.53 µM): 0.265
- relative viability (NCI-H441; first compound 8 µM): 0.238
- relative viability (NCI-H460; first compound 0.08 µM): 0.05
- relative viability (NCI-H460; first compound 0.253 µM): 0.0643
- relative viability (NCI-H460; first compound 0.8 µM): 0.0627
- relative viability (NCI-H460; first compound 2.53 µM): 0.0654
- relative viability (NCI-H460; first compound 8 µM): 0.0685
- relative viability (PC-3 [JPC-3]; first compound 0.253 µM): 1.08
- relative viability (PC-3 [JPC-3]; first compound 0.8 µM): 1.04
- relative viability (PC-3 [JPC-3]; first compound 2.53 µM): 1.08
- relative viability (PC-3 [JPC-3]; first compound 8 µM): 0.985
- relative viability (NCI-H2170; first compound 0.08 µM): 0.273
- relative viability (NCI-H2170; first compound 0.253 µM): 0.242
- relative viability (NCI-H2170; first compound 0.8 µM): 0.263
- relative viability (NCI-H2170; first compound 2.53 µM): 0.258
- relative viability (NCI-H2170; first compound 8 µM): 0.258
- relative viability (EMC-BAC-2; first compound 0.08 µM): 0.464
- relative viability (EMC-BAC-2; first compound 0.253 µM): 0.462
- relative viability (EMC-BAC-2; first compound 0.8 µM): 0.392
- relative viability (EMC-BAC-2; first compound 2.53 µM): 0.428
- relative viability (EMC-BAC-2; first compound 8 µM): 0.438
- relative viability (NCI-H1355; first compound 0.08 µM): 1.07
- relative viability (NCI-H1355; first compound 0.253 µM): 1.01
- relative viability (NCI-H1355; first compound 0.8 µM): 0.878
- relative viability (NCI-H1355; first compound 2.53 µM): 1.03
- relative viability (NCI-H1355; first compound 8 µM): 1.01
- relative viability (NCI-H2009; first compound 0.08 µM): 1.07
- relative viability (NCI-H2009; first compound 0.253 µM): 1
- relative viability (NCI-H2009; first compound 0.8 µM): 0.975
- relative viability (NCI-H2009; first compound 2.53 µM): 0.963
- relative viability (NCI-H2009; first compound 8 µM): 0.973
- relative viability (SK-LU-1; first compound 0.08 µM): 1.05
- relative viability (SK-LU-1; first compound 0.253 µM): 0.991
- relative viability (SK-LU-1; first compound 0.8 µM): 0.897
- relative viability (SK-LU-1; first compound 2.53 µM): 0.853
- relative viability (SK-LU-1; first compound 8 µM): 0.817
- relative viability (NCI-H1793; first compound 0.08 µM): 0.807
- relative viability (NCI-H1793; first compound 0.253 µM): 0.798
- relative viability (NCI-H1793; first compound 0.8 µM): 0.8
- relative viability (NCI-H1793; first compound 2.53 µM): 0.829
- relative viability (NCI-H1793; first compound 8 µM): 0.676
- relative viability (NCI-H520; first compound 0.08 µM): 0.651
- relative viability (NCI-H520; first compound 0.253 µM): 0.723
- relative viability (NCI-H520; first compound 0.8 µM): 0.739
- relative viability (NCI-H520; first compound 2.53 µM): 0.734
- relative viability (NCI-H520; first compound 8 µM): 0.575
- relative viability (NCI-H1755; first compound 0.08 µM): 0.707
- relative viability (NCI-H1755; first compound 0.253 µM): 0.423
- relative viability (NCI-H1755; first compound 0.8 µM): 0.516
- relative viability (NCI-H1755; first compound 2.53 µM): 0.389
- relative viability (NCI-H1755; first compound 8 µM): 0.393
- relative viability (LCLC-97TM1; first compound 0.08 µM): 0.2
- relative viability (LCLC-97TM1; first compound 0.253 µM): 0.177
- relative viability (LCLC-97TM1; first compound 0.8 µM): 0.19
- relative viability (LCLC-97TM1; first compound 2.53 µM): 0.18
- relative viability (LCLC-97TM1; first compound 8 µM): 0.156
- relative viability (NCI-H2347; first compound 0.08 µM): 0.406
- relative viability (NCI-H2347; first compound 0.253 µM): 0.449
- relative viability (NCI-H2347; first compound 0.8 µM): 0.42
- relative viability (NCI-H2347; first compound 2.53 µM): 0.368
- relative viability (NCI-H2347; first compound 8 µM): 0.475
- relative viability (NCI-H1666; first compound 0.08 µM): 0.808
- relative viability (NCI-H1666; first compound 0.253 µM): 0.809
- relative viability (NCI-H1666; first compound 0.8 µM): 0.834
- relative viability (NCI-H1666; first compound 2.53 µM): 0.891
- relative viability (NCI-H1666; first compound 8 µM): 0.782
- relative viability (NCI-H1993; first compound 0.08 µM): 0.487
- relative viability (NCI-H1993; first compound 0.253 µM): 0.548
- relative viability (NCI-H1993; first compound 0.8 µM): 0.512
- relative viability (NCI-H1993; first compound 2.53 µM): 0.482
- relative viability (NCI-H1993; first compound 8 µM): 0.501
